Experimental findings from patent US20190350955A1, “METHODS AND PHARMACEUTICAL COMPOSITIONS FOR THE TREATMENT OF CARDIOMYOPATHIES” (INSERM (Institut National de la Sante et de la Recherche …, priority 2016, published 2019) are described below.

What all share (format): in vivo, mouse
One assay relates to SRF^HKO mice. The assay is described as follows: Echocardiography of SRF HKO mice on NR diet. The text has this:
(§1) Transgenic mice. All experiments with animals conformed to the Directive 2010/63/EU of the European Parliament and were approved by the ethics committee Charles Darvin #5 (agreement 00369.01). SRF^HKO mice bear the tamoxifen-inducible α-MHC-MerCrMer transgene and the Siffloxed allele (Sf/Sf) as described previously (Parlakian et al. (2005). Temporally controlled onset of dilated cardiomyopathy through disruption of the SRF gene in adult heart. Journal 112, 2930-2939; Tritsch et al. (2013). An SRF/miR-1 axis regulates NCX1 and Annexin A5 protein levels in the normal and failing heart. Journal 98, 372-380). Transgenic mice have been bred for more than 20 generations in C57BL/6N background. The mice were housed in standard animal facility (CEF. Hôpital Pitié Salpétrière, agreement A-75-13-15, 75013 Paris), under a 12-h dark/light cycle. Tamoxifen (Sigma T5648) was administrated by i.p. injection at a dose of 0.7 mg diluted in 100 μl peanut oil at day (D) 0, D1 and D2. (Sf/Sf) littermates injected with tamoxifen at the same time than mutant were used as controls.
SRF^HKO and control (Sf/Sf) mice were administered either rodent maintenance SAFE A04 diet containing 3.10% crude fat. 16.10% crude proteins. 26% starch and 1.9% sugar (Scientific Animal Food Engineering, Paris, France) or SAFE # A04 diet supplemented with NR. NR was provided by Chromadex under brand name NIAGEN (Irvine Calif. USA). The soft pellets were manually prepared every 5 days by mixing 1.65 g of NR into 500 g of powdered SAFE A04 diet and 235 ml of water to reach 2.24 mg of NR/g (wet weight). Control diet was prepared in the same way omitting NR. Mice had ad libitum access to food and water. Mice (average body weight 31.3±0.82 g, no difference between groups) consumed an average of 6 g of soft food per day, reaching a daily intake of 450 mg NR/kg. No difference in food intake was observed between SRF^HKO and control mice.
Echocardiography was performed on lightly anesthetized mice given isoflurane (induction with 2% isoflurane 100% O2. and maintained with 0.5% isoflurance 100% O2). Non-invasive measurements of left ventricular dimensions were evaluated using Doppler echocardiography (Vivid 7 Dimension/Vivid7 PRO; GE Medical Systems) with a probe ultrasound frequency range of 9-14 MHz. The two-dimensionally guided time-motion recording mode (parasternal long-axis view) of the left ventricle (LV) provided the following measurements: diastolic and systolic septal (IVS) and posterior wall thicknesses (LVPW); internal end-diastolic (LVEDD) and end-systolic diameters (LVESD); and heart rate. Each set of measurements was obtained from the same cardiac cycle. At least 3 sets of measurements were obtained from 3 different cardiac cycles. LV fractional shortening (FS) was calculated using the formula: (LVEDD−LVESD)/LVEDD×100. LV myocardial volume (LVV), LV end-diastolic volume (EDV), and end-systolic volume (ESV) were calculated using a half-ellipsoid model of the LV. From these volumes, LV ejection fraction (EF) was calculated using, the formula: (EDV−ESV)/EDV×100. H/R ratio was calculated by the formula (PWThd+IVSThd)/LVEDd.

The subject of another assay is control mice. Kind of assay: Echocardiography of control (Sf/Sf) mice on NR diet. The note with it: D45 to D47.
Excerpt: as §1, with “The mice were housed in standard animal facility (CEF. Hôpital Pitié Salpétrière, agreement A-75-13-15, 75013 Paris), under a 12-h dark/light cycle. Tamoxifen (Sigma T5648) was administrated by i.p. injection at a dose of 0.7 mg diluted in 100 μl peanut oil at day (D) 0, D1 and D2. (Sf/Sf) littermates injected with tamoxifen at the same time than mutant were used as controls.” left out
Echocardiography was performed on lightly anesthetized mice given isoflurane (induction with 2% isoflurane 100% O2. and maintained with 0.5% isoflurance 100% O2). Non-invasive measurements of left ventricular dimensions were evaluated using Doppler echocardiography (Vivid 7 Dimension/Vivid7 PRO; GE Medical Systems) with a probe ultrasound frequency range of 9-14 MHz. […] LV fractional shortening (FS) was calculated using the formula: (LVEDD−LVESD)/LVEDD×100. LV myocardial volume (LVV), LV end-diastolic volume (EDV), and end-systolic volume (ESV) were calculated using a half-ellipsoid model of the LV. From these volumes, LV ejection fraction (EF) was calculated using, the formula: (EDV−ESV)/EDV×100. […]

The subject of the next assay is TAC mice. The assay is described as follows: RT-qPCR of Nmrk2, Nmrk1, Nampt mRNA after TAC. The following applies: 6 weeks after surgery, NR 400 mg/kg/day. The procedure:
Transverse aorta constriction was performed in 2 month-old male mice under anesthesia (ketamine 100 mg/kg, xylazin 16 mg/kg). Skin was opened above the sternum and the upper part of the sternum was cut on a length of 2 mm allowing the mouse to breath without the need of a ventilator. A surgical suture was passed under the aortic cross between the right brachiocephalic (innominate) artery and left common carotid artery and a 27-½ gauge blunt needle was placed parallel to the wall of the aortic cross as a calibrator. Two loose knots were tied around the aortic cross and the needle. The first knot was quickly tied against the needle, followed by the second and the needle was promptly removed in order to produce a constriction of 0.4 mm in diameter. In sham, mice the procedure was the same except for the constriction of the aorta. NR treatment was started 2 days after the TAC or SHAM surgery.
cDNAs were reverse transcribed from RNA (1.5 μg) extracted in TRIzol (Thermofisher) from cell cultures and tissues using the Superscript II Reverse Transcriptase (Life Technologies). Quantitative PCR was carried out on a Light Cycler 480 (Roche Diagnostics) using Fast Start SYBR Green Master (Roche Diagnostics). Quantification of gene expression was calculated as R=2^ΔCt(Ref Cp−target Cp), with Hprt used as a as reference. Primers were designed using the NCBI Primer-BLAST software. […]

The mark [1] stands for this setting: NR diet, echocardiography D45 to D47.

For `NC(=O)c1ccc[n+]([C@@H]2O[C@H](CO)[C@@H](O)[C@H]2O)c1` [NR, nicotinamide riboside], the “LV ejection fraction (LVEF)” value in the assay on SRF^HKO mice (NR diet 0.22% from D5, echocardiography D45 to D47, ± S.D, non-treated SRF HKO 48.1, control mice 73.5) is recorded as 64.8%±8.2. Further, in the assay on SRF^HKO mice (NR diet, D45 to D47), the “LV contractile functions (LVEF and FS)” value is on record as “clearly protected”; the “changes in stroke volume or cardiac output” value is “not significant”; the “dilatation of LV in systole and diastole” value is on record as “fully protected”; the “reduction of the H/R ratio (eccentric remodeling)” value is “fully prevented”. In the assay with SRF^HKO mice (NR diet, D45 to D47, more efficiently at posterior wall than interventricular septum), the “thinning of the LV wall in systole and diastole” value was “reduced the thinning”. Besides, in the assay on SRF^HKO mice (setting [1]), the LV mass index result is given as “did not induce any change” and the heart rate entry is “did not induce any change”. Besides, the H/R ratio entry with control mice was “slightly increased”. In addition, the “Nmrk2, Nmrk1 and Nampt mRNA levels” value in the assay on TAC mice is given as “no impact”.
